Results as given in ChEMBL document CHEMBL1154496, “The pharmacophore of a peptoid VEGF receptor 2 antagonist includes both side chain and main chain residues” (Bioorg Med Chem Lett, 2008).
Active and inactive are the calls of the source. The rule behind the calls is not given here. Square brackets hold non-standard residues; d marks the D form. Peptide text beside a SMILES is read from it. * marks the point of attachment. ξ: configuration not given here. X1 = O=C(O)c1cc(N2C(=O)CC(*)C2=O)ccc1-c1c2ccc(=O)cc-2oc2cc(O)ccc12; Gly(N-piperonyl) = O=C(O)CNCc1ccc2c(c1)OCO2; Nrpe = C[C@@H](NCC(=O)O)c1ccccc1; Nleu = CC(C)CNCC(=O)O; Nlys = NCCCCNCC(=O)O; ξC = NC(CS)C(=O)O

biological target: Vascular endothelial growth factor receptor 2 (Homo sapiens) (UniProt P35968); assay: Binding affinity to VEGFR2 extracellular domain
Sequence (P35968 whole entry, the tested form may be a part): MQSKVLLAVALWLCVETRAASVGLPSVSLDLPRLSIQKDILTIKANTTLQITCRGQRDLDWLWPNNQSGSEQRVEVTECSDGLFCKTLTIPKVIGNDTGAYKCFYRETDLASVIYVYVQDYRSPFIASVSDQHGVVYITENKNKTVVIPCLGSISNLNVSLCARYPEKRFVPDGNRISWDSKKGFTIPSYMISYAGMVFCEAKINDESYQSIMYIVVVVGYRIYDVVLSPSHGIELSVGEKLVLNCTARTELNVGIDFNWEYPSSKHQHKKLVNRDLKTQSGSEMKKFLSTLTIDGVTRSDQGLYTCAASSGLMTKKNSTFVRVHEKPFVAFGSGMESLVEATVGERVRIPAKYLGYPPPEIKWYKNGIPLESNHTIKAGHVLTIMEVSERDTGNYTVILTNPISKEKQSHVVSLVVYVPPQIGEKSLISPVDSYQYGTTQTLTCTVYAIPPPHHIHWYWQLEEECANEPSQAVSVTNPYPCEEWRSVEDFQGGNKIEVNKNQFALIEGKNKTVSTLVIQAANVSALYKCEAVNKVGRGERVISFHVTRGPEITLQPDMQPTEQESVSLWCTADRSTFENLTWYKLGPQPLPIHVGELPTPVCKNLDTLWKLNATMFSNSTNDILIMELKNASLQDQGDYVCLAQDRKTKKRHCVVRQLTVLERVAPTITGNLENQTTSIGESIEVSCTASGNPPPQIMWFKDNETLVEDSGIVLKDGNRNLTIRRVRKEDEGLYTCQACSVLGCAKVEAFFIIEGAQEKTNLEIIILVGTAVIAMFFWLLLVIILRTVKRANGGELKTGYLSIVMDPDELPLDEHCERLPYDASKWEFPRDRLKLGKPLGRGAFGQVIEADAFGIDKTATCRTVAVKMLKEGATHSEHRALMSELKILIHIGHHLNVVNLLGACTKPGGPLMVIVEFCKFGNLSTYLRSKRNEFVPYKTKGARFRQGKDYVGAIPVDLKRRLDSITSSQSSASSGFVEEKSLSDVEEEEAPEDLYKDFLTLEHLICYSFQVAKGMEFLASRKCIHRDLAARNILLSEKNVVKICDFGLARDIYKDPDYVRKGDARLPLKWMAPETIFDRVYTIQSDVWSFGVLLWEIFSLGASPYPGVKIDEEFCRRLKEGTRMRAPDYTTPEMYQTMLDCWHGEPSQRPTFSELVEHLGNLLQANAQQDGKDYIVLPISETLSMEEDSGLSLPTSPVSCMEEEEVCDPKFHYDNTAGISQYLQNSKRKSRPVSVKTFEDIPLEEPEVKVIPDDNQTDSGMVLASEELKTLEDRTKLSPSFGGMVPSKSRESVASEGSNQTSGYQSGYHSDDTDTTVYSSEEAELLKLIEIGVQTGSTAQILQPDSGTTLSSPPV

Activity | Structure (SMILES)
Active | CC(C)CN(CC(=O)N(CCCCN)CC(=O)N(CC(=O)NCC(=O)NCC(=O)NCC(=O)NCC(=O)NCC(=O)NC(CSC1CC(=O)N(c2ccc(-c3c4ccc(=O)cc-4oc4cc(O)ccc34)c(C(=O)O)c2)C1=O)C(N)=O)[C@H](C)c1ccccc1)C(=O)CN (stereo partly drawn) (H-G[Nleu][Nlys][Nrpe]GGGGG[ξC](X1)-NH2)
inactive | CC(C)CN(CC(=O)N(CCCCN)CC(=O)N(CC(=O)NC(CSC1CC(=O)N(c2ccc(-c3c4ccc(=O)cc-4oc4cc(O)ccc34)c(C(=O)O)c2)C1=O)C(N)=O)[C@H](C)c1ccccc1)C(=O)CN (stereo partly drawn) (H-G[Nleu][Nlys][Nrpe][ξC](X1)-NH2)
Active | CC(C)CN(CC(=O)N(CCCCN)CC(=O)N(CC(=O)N(CC(=O)N(CCCCN)CC(=O)N(CC(=O)N(CCCCN)CC(=O)N(CCCCN)CC(N)=O)CC(C)C)Cc1ccc2c(c1)OCO2)[C@H](C)c1ccccc1)C(=O)CNCCCCN (H-[Nlys][Nleu][Nlys][Nrpe][Gly(N-piperonyl)][Nlys][Nleu][Nlys][Nlys]-NH2)
